Measured values from ChEMBL document CHEMBL1201862, “PubChem BioAssay data set” (2004).
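Exposure lasted 48 hours, with cells grown in 96-well plates and compounds tested at five concentrations. The concentration for 50% growth inhibition is given as GI50.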 Activity calls are given as the source filed them. Rule as the data show it: active = GI50 up to about 1.1 µM and inactive = higher.

Experiments:
Test in all cases: NCI-60 cell line screen, 48 h
COLO 205 = tested on: COLO 205
ACHN = tested on: ACHN
UO-31 = tested on: UO-31
OVCAR-8 = tested on: OVCAR-8
SK-OV-3 = tested on: SK-OV-3
MOLT-4 = tested on: MOLT-4
A549 = tested on: A549
M19-MEL = tested on: M19-MEL
SK-MEL-5 = tested on: SK-MEL-5
SN12C = tested on: SN12C
SW-620 = tested on: SW-620
DMS-114 = tested on: DMS-114
HOP-62 = tested on: HOP-62
CAKI-1 = tested on: CAKI-1
U-251 = tested on: U-251
LXFL 529 = tested on: LXFL 529
HCC 2998 = tested on: HCC 2998
SR = tested on: SR
HCT-15 = tested on: HCT-15
K562 = tested on: K562
SF-539 = tested on: SF-539
IGROV-1 = tested on: IGROV-1
SNB-19 = tested on: SNB-19
RXF 631 = tested on: RXF 631
LOX IMVI = tested on: LOX IMVI
786-0 = tested on: 786-0
M14 = tested on: M14
HL-60 = tested on: HL-60
DLD-1 = tested on: DLD-1
UACC-257 = tested on: UACC-257
TK-10 = tested on: TK-10
EKVX = tested on: EKVX
HOP-18 = tested on: HOP-18
RPMI-8226 = tested on: RPMI-8226
OVCAR-3 = tested on: OVCAR-3
SK-MEL-28 = tested on: SK-MEL-28
Malme-3M = tested on: Malme-3M
SNB-78 = tested on: SNB-78
NCI-H522 = tested on: NCI-H522
NCI-H460 = tested on: NCI-H460
OVCAR-4 = tested on: OVCAR-4
HT-29 = tested on: HT-29
NCI-H23 = tested on: NCI-H23
HCT-116 = tested on: HCT-116
SF-268 = tested on: SF-268
RXF 393 = tested on: RXF 393
SK-MEL-2 = tested on: SK-MEL-2
UACC-62 = tested on: UACC-62
XF498 = tested on: XF498
NCI-H226 = tested on: NCI-H226
HOP-92 = tested on: HOP-92
SF-295 = tested on: SF-295
OVCAR-5 = tested on: OVCAR-5
CCRF-CEM = tested on: CCRF-CEM
KM12 = tested on: KM12
NCI/ADR-RES = tested on: NCI/ADR-RES
KM-20L2 = tested on: KM-20L2
DMS-273 = tested on: DMS-273
A498 = tested on: A498
SNB-75 = tested on: SNB-75
MCF7 = tested on: MCF7

CC1=C(C(=O)Nc2ccccc2C)C(c2ccc(Cl)cc2)C(C(=O)Nc2ccccc2C)=C(C)N1
GI50 (COLO 205): > 100000 nM (inactive) | GI50 (ACHN): > 100000 nM (inactive) | GI50 (UO-31): > 100000 nM (inactive) | GI50 (OVCAR-8): > 100000 nM (inactive) | GI50 (SK-OV-3): > 100000 nM (inactive) | GI50 (MOLT-4): > 100000 nM (inactive) | GI50 (A549): > 100000 nM (inactive) | GI50 (M19-MEL): > 100000 nM (inactive) | GI50 (SK-MEL-5): > 100000 nM (inactive) | GI50 (SN12C): > 100000 nM (inactive) | GI50 (SW-620): > 100000 nM (inactive) | GI50 (DMS-114): > 100000 nM (inactive) | GI50 (HOP-62): > 100000 nM (inactive) | GI50 (CAKI-1): > 100000 nM (inactive) | GI50 (U-251): > 100000 nM (inactive) | GI50 (LXFL 529): > 100000 nM (inactive) | GI50 (HCC 2998): > 100000 nM (inactive) | GI50 (SR): > 100000 nM (inactive) | GI50 (HCT-15): > 100000 nM | GI50 (K562): > 100000 nM (inactive) | GI50 (SF-539): > 100000 nM (inactive) | GI50 (IGROV-1): > 100000 nM (inactive) | GI50 (SNB-19): > 100000 nM (inactive) | GI50 (RXF 631): > 100000 nM (inactive) | GI50 (LOX IMVI): > 100000 nM (inactive) | GI50 (786-0): > 100000 nM (inactive) | GI50 (M14): > 100000 nM (inactive) | GI50 (HL-60): > 100000 nM (inactive) | GI50 (DLD-1): > 100000 nM (inactive) | GI50 (UACC-257): > 100000 nM (inactive) | GI50 (TK-10): > 100000 nM (inactive) | GI50 (EKVX): > 100000 nM (inactive) | GI50 (HOP-18): > 100000 nM (inactive) | GI50 (RPMI-8226): > 100000 nM (inactive) | GI50 (OVCAR-3): > 100000 nM (inactive) | GI50 (SK-MEL-28): > 100000 nM (inactive) | GI50 (Malme-3M): > 100000 nM (inactive) | GI50 (SNB-78): > 100000 nM (inactive) | GI50 (NCI-H522): > 100000 nM (inactive) | GI50 (NCI-H460): > 100000 nM (inactive) | GI50 (OVCAR-4): > 100000 nM (inactive) | GI50 (HT-29): > 100000 nM (inactive) | GI50 (NCI-H23): > 100000 nM (inactive) | GI50 (HCT-116): > 100000 nM (inactive) | GI50 (SF-268): > 100000 nM (inactive) | GI50 (RXF 393): > 100000 nM (inactive) | GI50 (SK-MEL-2): > 100000 nM (inactive) | GI50 (UACC-62): > 100000 nM (inactive) | GI50 (XF498): 81300 nM (inactive) | GI50 (NCI-H226): > 100000 nM (inactive) | GI50 (HOP-92): > 100000 nM (inactive) | GI50 (SF-295): > 100000 nM (inactive) | GI50 (OVCAR-5): > 100000 nM (inactive) | GI50 (CCRF-CEM): > 100000 nM (inactive) | GI50 (KM12): > 100000 nM (inactive)

CC1[C@@]2(CCC(C)(C)O2)O[C@@H]2C=C3C4CCC5Cc6nc7c(nc6C[C@@]5(C)C4C[C@H](O)[C@@]3(C)[C@]12O)CC1CCC2C3=C[C@H]4O[C@@]5(O[C@@](C)(CO)C[C@@H]5O)C(C)[C@@]4(O)[C@]3(C)[C@@H](O)CC2[C@]1(C)C7 (stereo not given in full)
GI50 (COLO 205): 163 nM (active) | GI50 (ACHN): 103 nM (active) | GI50 (UO-31): 47 nM (active) | GI50 (OVCAR-8): 753 nM (active) | GI50 (SK-OV-3): 86.3 nM (active) | GI50 (NCI/ADR-RES): 619 nM (active) | GI50 (MOLT-4): 21.7 nM (active) | GI50 (A549): 95.3 nM (active) | GI50 (M19-MEL): 991 nM (active) | GI50 (SK-MEL-5): 95.1 nM (active) | GI50 (SN12C): 975 nM (active) | GI50 (SW-620): 64 nM (active) | GI50 (DMS-114): 26.8 nM (active) | GI50 (HOP-62): 27.2 nM (active) | GI50 (CAKI-1): 111 nM (active) | GI50 (U-251): 26.6 nM (active) | GI50 (LXFL 529): 25.4 nM (active) | GI50 (HCC 2998): 624 nM (active) | GI50 (KM-20L2): 50.9 nM (active) | GI50 (SR): 26.4 nM (active) | GI50 (HCT-15): 169 nM | GI50 (K562): 55 nM (active) | GI50 (DMS-273): 12.3 nM (active) | GI50 (SF-539): 8.47 nM (active) | GI50 (IGROV-1): 248 nM (active) | GI50 (SNB-19): 224 nM (active) | GI50 (RXF 631): 19.8 nM (active) | GI50 (LOX IMVI): 52.6 nM (active) | GI50 (786-0): 16.8 nM (active) | GI50 (M14): 40 nM (active) | GI50 (A498): 31.3 nM (active) | GI50 (HL-60): 30.7 nM (active) | GI50 (DLD-1): 753 nM (active) | GI50 (UACC-257): 138 nM (active) | GI50 (TK-10): 681 nM (active) | GI50 (EKVX): 175 nM (active) | GI50 (RPMI-8226): 6.53 nM (active) | GI50 (OVCAR-3): 736 nM (active) | GI50 (SNB-75): 7.62 nM (active) | GI50 (SK-MEL-28): 55.3 nM (active) | GI50 (Malme-3M): 175 nM (active) | GI50 (SNB-78): 43 nM (active) | GI50 (NCI-H522): 9.02 nM (active) | GI50 (NCI-H460): 38.8 nM (active) | GI50 (OVCAR-4): 723 nM (active) | GI50 (HT-29): 109 nM (active) | GI50 (NCI-H23): 118 nM (active) | GI50 (HCT-116): 120 nM (active) | GI50 (SF-268): 50 nM (active) | GI50 (RXF 393): 6.41 nM (active) | GI50 (SK-MEL-2): 78.3 nM (active) | GI50 (UACC-62): 50.8 nM (active) | GI50 (MCF7): 9.59 nM (active) | GI50 (XF498): 322 nM (active) | GI50 (NCI-H226): 42.8 nM (active) | GI50 (HOP-92): 52.4 nM (active) | GI50 (SF-295): 8.07 nM (active) | GI50 (OVCAR-5): 142 nM (active) | GI50 (CCRF-CEM): 19.9 nM (active) | GI50 (KM12): 109 nM (active)
